What all share (assay type): biochemical
The target in one experiment is PI3K gamma (Homo sapiens, UniProt P48736). Briefly: PI3 Kinase Assay (PI3K gamma). The conditions noted are these: 1 h. The protocol:
(§1) PI3-Kinase reactions were performed in […], pH 7, […], and 25 μM ATP, with diC8-PI(4,5)P2 (Echelon, Salt Lake City Utah) as substrate. Nunc 384 well black polypropylene fluorescent plates were used for PI3K assays. Reactions were quenched by the addition of EDTA to a final concentration of […]. Final reaction volumes were […]. For evaluation of PI 3-K inhibitors, 5 ng of enzyme and 2.5 μM of substrate was used per […] reaction volume, and inhibitor concentrations ranged from 100 μM to […]; the final level of DMSO in reactions never exceeded 2%. Reactions were allowed to proceed for one hour at 25° C. After 1 hour, GST-tagged GRP1 (general receptor for phosphoinositides) PH domain fusion protein was added to a final concentration of 100 nM, and BODIPY-TMRI(1,3,4,5)P4 (Echelon) was also added to a final concentration of 5 nM. Final sample volumes were 25 μl with a final DMSO concentration of 0.8%. Assay Plates were read on Perkin-Elmer Envision plate readers with appropriate filters for Tamra [BODIPY-TMRI(1,3,4,5)P4]. Data obtained were used to calculate enzymatic activity and enzyme inhibition by inhibitor compounds.

The target in a further experiment is T1, human recombinant IRAK4 (Homo sapiens, UniProt Q9NWZ3).
T1 construct: human recombinant IRAK4 (4 nM) containing residues 154 through 460
T1 sequence (Q9NWZ3 154-460): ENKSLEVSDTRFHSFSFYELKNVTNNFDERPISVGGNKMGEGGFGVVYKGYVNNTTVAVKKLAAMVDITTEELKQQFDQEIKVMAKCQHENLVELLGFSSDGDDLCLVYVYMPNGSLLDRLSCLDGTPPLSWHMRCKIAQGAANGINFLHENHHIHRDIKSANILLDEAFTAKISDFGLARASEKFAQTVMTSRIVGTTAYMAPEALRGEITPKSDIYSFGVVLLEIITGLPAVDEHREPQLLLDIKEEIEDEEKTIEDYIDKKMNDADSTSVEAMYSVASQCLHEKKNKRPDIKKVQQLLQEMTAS
The experiment can be described thus: IRAK4 kinase ELISA based assay. How it is done: IRAK4 kinase activity was assessed using human recombinant IRAK4 (4 nM) containing residues 154 through 460 in an ELISA based assay. The kinase reaction was performed on 96-well streptavidin coated plates using a biotinylated 11-mer peptide derived from MK2 in 20 mM Hepes pH7.4, 10 mM MgCl2, 3 mM DTT, 600 uM ATP, 0.01% Triton X100, 5% DMSO and various compound concentrations in a final volume of 100 ul. The reaction was stopped after 60 min incubation at room temperature with 50 ul of 0.5M EDTA and washed 6 times in PBS 0.05% Tween 20. A Rabbit polyclonal anti-phospho-threonine antibody was then added to the plate along with a Goat anti-Rabbit antibody labeled with europium in 20 mM MOPS, 150 mM NaCl, 0.025% Tween 20, 0.02% gelatin, 1% BSA for 1 hour at room temperature. The plate was then washed 6 times in PBS 0.05% Tween 20 and enhancement solution from Perkin Elmer was added before counting on a Victor 2 reader from Perkin Elmer.
On the technique in general: An ELISA detects its analyte on a solid surface through an enzyme-linked reagent.

The next experiment has as its target PI3K alpha (Homo sapiens, UniProt P42336). Briefly: PI3 Kinase Assay (PI3K alpha). How it is done:
as §1

The next experiment has as its target T2, human recombinant MK2 (Homo sapiens, UniProt P49137).
T2 construct: human recombinant MK2 (25 nM) containing residues 41 through 353
Briefly: MK2 kinase ELISA based assay. How it is done: MK2 kinase activity was assessed using human recombinant MK2 (25 nM) containing residues 41 through 353 in an ELISA based assay. The kinase reaction was performed on 96-well streptavidin coated plates using a biotinylated 16-mer peptide as a substrate derived from LSP1 in 20 mM Hepes pH7.4, 10 mM MgCl2, 3 mM DTT, 1 uM ATP, 0.01% Triton X100, 2% DMSO and various compound concentrations in a final volume of 100 ul. The reaction was stopped after 30 min incubation at room temperature with 50 ul of 0.5M EDTA and washed 6 times in PBS 0.05% Tween 20. Polyclonal anti phospho-LSP1 antibodies was then added to the plate along with a Goat anti-Rabbit antibody labeled with europium in 20 mM MOPS, 150 mM NaCl, 0.025% Tween 20, 0.02% gelatin, 1% BSA for 1 hour at room temperature. The plate was then washed 6 times in PBS 0.05% Tween 20 and enhancement solution from Perkin Elmer was added before counting on a Victor 2 reader from Perkin Elmer.

The target in a further experiment is T3, recombinant human B-Raf (Homo sapiens, UniProt P15056).
T3 construct: Flag; GST; purchased Upstate; host or cells: Sf21 insect cells
T3 sequence (P15056 whole entry): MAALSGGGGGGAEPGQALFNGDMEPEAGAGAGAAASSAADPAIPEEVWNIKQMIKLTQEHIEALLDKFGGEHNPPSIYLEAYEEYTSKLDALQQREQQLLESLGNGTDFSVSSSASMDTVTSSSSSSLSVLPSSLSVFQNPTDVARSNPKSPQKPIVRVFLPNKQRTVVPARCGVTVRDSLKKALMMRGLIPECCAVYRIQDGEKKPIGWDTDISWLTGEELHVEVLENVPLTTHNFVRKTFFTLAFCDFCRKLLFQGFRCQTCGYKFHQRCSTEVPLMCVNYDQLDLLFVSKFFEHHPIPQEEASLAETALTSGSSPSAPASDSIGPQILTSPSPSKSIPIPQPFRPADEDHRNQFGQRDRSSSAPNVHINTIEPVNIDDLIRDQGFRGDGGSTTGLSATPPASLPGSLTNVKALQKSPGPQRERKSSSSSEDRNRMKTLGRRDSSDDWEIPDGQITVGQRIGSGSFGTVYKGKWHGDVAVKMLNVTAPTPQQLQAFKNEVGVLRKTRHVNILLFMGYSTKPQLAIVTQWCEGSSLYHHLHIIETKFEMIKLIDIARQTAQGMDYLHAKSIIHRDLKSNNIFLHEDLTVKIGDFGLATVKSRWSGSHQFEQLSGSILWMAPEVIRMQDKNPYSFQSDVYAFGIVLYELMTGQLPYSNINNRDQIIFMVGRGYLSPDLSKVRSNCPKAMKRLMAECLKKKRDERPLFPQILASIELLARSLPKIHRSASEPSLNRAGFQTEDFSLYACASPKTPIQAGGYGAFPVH
Briefly: B-Raf Kinase Assay. How it is done: Reagents: Flag/GST-tagged recombinant human B-Raf produced in Sf21 insect cells (purchased from Upstate), human Mek-1-GST, non-active recombinant protein produced in E. coli (from Upstate); and a phospho-MEK1 specific poly-clonal Ab from Cell Signaling Technology (cat. #9121).
• B-Raf-1 is used to phosphorylate GST-MEK1. MEK1 phosphorylation is measured by a phospho-specific antibody (from Cell Signaling Technology, cat. #9121) that detects phosphorylation of two serine residues at positions 217 and 221 on MEK1.
1. Assay Dilution Buffer (ADB): 20 mM MOPS, pH 7.2, 25 mM β-glycerol phosphate, 5 mM EGTA, 1 mM sodium orthovanadate, 1 mM dithiothreitol, 0.01% Triton X-100. 2. Magnesium/ATP Cocktail: ADB solution (minus Triton X-100) plus 200 μM cold ATP and 40 mM magnesium chloride. 3. Active Kinase: Active B-Raf: used at 0.2 nM per assay point. 4. Non-active GST-MEK1: Use at 2.8 nM final concentration). 5. TBST-Tris (50 mM, pH 7.5), NaCl (150 mM), Tween-20 (0.05%)
7. Anti pMEK Ab (Upstate) 8. Anti-rabbit Ab/Europium conjugate (Wallac)
1. Add 25 μl of ADB containing B-Raf and Mek per assay (i.e. per well of a 96 well plate) 2. Add 25 μl of 0.2 mM ATP and 40 mM magnesium chloride in Magnesium/ATP Cocktail. 3. Incubate for 45 minutes at RT with occasional shaking. 4. Transfer this mixture to an anti-GST Ab coated 96 well plate (Nunc Immunosorb plates coated o/n with a-GST. Plate freshly washed 3× with TBS-T before use. 5. Incubate o/n at […] in cold room. 6. Wash 3× with TBST, add Anti-Phospho MEK1 (1:1000, dilution depends upon lot) 7. Incubate for 60 minutes at RT in a shaking incubator 8. Wash 3× with TBST, add Anti-rabbit Ab/Europium conjugate (Wallac) (1:500, dilution depends upon lot) 9. Incubate for 60 minutes at RT on a platform shaker. 10. Wash plate 3× with TBS-T 11. Add 100 ul of Wallac Delfia Enhancement Solution and shake for 10 minutes. 12. Read plates in Wallac Victor model Plate Reader. 13. Collect data analyze in Excel for single point and IC50 determinations.

Another experiment concerns the target T4, human TOR (FLAG-TOR) (Homo sapiens, UniProt P42345).
T4 construct: FLAG
Briefly: mTOR Enzyme Assay (DELFIA). How it is done:
The routine human TOR assays with purified enzyme were performed in 96-well plates by DELFIA format as follows. Enzymes were first diluted in kinase assay buffer (10 mM Hepes (pH 7.4), 50 mM NaCl, 50 mM β-glycerophosphate, 10 mM MnCl2, 0.5 mM DTT, 0.25 μM microcystin LR, and 100 μg/mL BSA). To each well, 12 μL of the diluted enzyme were mixed briefly with 0.5 μL test inhibitor or control vehicle dimethylsulfoxide (DMSO). The kinase reaction was initiated by adding 12.5 μL kinase assay buffer containing ATP and His6-S6K to give a final reaction volume of 25 μL containing 800 ng/mL FLAG-TOR, 100 μM ATP and 1.25 μM His6-S6K. The reaction plate was incubated for 2 hours (linear at 1-6 hours) at room temperature with gentle shaking and then terminated by adding 25 μL Stop buffer (20 mM Hepes (pH 7.4), 20 mM EDTA, 20 mM EGTA). The DELFIA detection of the phosphorylated (Thr-389) His6-S6K was performed at room temperature using a monoclonal anti-P(T389)-p70S6K antibody (1A5, Cell Signaling) labeled with Europium-N-1-ITC (Eu) (10.4 Eu per antibody, PerkinElmer). The DELFIA Assay buffer and Enhancement solution were purchased from PerkinElmer. 45 μL of the terminated kinase reaction mixture was transferred to a MaxiSorp plate (Nunc) containing 55 μL PBS. […] L of DELFIA Enhancement solution was added to each well and the plates were read in a PerkinElmer Victor model plate reader. […]

Molecules are shown by their SMILES.

PI3K alpha, sequence (P42336 whole entry, species assumed): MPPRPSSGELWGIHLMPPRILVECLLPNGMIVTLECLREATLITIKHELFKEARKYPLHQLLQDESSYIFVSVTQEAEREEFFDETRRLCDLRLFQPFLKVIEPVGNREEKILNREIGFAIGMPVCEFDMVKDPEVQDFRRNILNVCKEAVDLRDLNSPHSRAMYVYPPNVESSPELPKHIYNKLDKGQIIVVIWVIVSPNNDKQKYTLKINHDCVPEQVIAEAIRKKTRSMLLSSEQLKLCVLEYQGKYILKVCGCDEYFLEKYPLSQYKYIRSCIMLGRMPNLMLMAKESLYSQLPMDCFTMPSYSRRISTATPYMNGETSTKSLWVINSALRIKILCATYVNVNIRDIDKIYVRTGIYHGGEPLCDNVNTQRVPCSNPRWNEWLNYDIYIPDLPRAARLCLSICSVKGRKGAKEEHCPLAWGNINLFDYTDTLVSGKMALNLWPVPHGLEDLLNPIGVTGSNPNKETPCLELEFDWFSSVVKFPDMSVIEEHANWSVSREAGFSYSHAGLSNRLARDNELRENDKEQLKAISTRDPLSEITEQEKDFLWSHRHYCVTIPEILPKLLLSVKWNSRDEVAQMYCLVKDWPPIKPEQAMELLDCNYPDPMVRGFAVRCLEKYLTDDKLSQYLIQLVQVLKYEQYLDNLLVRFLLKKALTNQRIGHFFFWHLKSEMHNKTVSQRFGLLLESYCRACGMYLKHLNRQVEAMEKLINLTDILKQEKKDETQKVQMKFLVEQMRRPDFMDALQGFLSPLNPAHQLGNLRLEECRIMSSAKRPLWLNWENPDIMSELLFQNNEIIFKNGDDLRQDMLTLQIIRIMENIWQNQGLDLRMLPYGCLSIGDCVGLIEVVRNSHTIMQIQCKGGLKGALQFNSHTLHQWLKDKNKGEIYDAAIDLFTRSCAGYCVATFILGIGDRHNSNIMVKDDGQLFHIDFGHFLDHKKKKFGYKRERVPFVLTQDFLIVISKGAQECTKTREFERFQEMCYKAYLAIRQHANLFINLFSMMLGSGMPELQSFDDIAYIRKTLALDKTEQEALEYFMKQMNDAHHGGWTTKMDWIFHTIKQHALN
PI3K alpha, sequence (P27986 whole entry partner, species assumed): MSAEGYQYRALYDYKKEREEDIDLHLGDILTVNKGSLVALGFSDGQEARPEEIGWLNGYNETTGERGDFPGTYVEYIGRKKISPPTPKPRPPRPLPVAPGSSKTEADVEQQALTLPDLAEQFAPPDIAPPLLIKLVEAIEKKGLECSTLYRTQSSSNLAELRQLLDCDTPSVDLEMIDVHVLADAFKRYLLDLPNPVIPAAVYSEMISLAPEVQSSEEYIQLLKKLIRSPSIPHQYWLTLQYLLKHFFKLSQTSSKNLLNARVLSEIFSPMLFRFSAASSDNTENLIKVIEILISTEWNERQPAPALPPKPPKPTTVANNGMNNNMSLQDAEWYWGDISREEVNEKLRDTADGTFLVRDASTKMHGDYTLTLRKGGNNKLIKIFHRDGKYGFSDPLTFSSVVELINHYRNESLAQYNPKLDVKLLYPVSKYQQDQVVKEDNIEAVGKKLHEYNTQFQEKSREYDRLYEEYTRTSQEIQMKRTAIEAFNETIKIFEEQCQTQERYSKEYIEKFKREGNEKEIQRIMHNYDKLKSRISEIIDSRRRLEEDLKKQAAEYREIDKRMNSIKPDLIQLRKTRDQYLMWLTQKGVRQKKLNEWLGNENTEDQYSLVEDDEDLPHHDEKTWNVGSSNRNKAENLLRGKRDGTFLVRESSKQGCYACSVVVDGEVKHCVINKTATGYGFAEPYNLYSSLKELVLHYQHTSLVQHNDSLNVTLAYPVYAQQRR
T2 sequence (P49137 41-353): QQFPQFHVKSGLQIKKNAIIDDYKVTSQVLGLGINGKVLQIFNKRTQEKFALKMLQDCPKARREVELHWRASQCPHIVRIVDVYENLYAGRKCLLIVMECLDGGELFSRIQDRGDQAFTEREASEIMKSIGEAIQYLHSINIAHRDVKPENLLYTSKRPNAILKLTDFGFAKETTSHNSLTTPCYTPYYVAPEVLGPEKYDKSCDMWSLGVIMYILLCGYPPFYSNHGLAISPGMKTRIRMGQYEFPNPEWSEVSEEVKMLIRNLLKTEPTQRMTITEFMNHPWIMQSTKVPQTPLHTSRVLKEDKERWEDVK
PI3K gamma, sequence (P48736 whole entry, species assumed, the tested form may be a part): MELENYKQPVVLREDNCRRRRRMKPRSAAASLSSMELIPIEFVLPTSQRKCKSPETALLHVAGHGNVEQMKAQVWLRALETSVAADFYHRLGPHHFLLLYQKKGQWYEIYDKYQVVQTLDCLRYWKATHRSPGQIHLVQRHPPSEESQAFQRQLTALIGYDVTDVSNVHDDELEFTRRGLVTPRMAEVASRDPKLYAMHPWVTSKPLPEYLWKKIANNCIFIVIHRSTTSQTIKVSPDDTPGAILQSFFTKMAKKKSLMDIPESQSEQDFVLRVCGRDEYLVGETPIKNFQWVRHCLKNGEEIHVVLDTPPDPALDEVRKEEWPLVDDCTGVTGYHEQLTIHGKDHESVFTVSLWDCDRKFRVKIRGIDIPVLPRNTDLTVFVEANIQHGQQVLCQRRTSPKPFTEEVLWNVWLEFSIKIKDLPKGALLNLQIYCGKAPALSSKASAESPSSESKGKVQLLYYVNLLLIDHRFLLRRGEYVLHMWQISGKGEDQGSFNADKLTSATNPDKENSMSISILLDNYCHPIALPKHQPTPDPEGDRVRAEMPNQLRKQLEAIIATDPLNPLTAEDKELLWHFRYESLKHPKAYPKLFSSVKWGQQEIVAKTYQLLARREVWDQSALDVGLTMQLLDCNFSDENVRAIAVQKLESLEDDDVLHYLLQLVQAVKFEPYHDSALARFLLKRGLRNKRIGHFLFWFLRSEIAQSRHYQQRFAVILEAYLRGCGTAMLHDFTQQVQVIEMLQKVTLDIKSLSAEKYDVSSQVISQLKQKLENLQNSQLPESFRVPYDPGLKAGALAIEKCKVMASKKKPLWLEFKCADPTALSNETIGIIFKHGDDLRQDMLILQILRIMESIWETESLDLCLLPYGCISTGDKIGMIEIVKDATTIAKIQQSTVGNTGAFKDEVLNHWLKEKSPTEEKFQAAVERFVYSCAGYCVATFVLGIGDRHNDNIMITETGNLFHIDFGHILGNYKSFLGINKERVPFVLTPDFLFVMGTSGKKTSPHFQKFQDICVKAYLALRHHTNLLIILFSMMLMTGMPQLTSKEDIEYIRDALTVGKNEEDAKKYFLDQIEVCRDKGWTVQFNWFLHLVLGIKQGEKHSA

Turning to `COC(=O)c1sc2ncnc(Oc3c(C)noc3C)c2c1C` [Example 39, Methyl 4-(3,5-dimethylisoxazol-4-yloxy)-5-methylthieno[2,3-d]pyrimidine-6-carboxylate], the inhibition at 30 µM against PI3K gamma is 15%; at PI3K alpha, 24%; at human recombinant MK2 it was 32%. The inhibition at 10 µM on human recombinant IRAK4 came out at 21%.

Regarding `Clc1ccc(Oc2ncnc3ccccc23)cn1` [Example 25, 4-(6-Chloropyridin-3-yloxy)quinazoline], the inhibition at 30 µM on PI3K gamma is 11%; against PI3K alpha, 42%; at human recombinant MK2 it was 31%. For the same compound, the inhibition at 10 µM at human recombinant IRAK4 worked out at 19%; at recombinant human B-Raf it was 20%.

For the compound `c1ccc2c(Oc3ccsc3)ncnc2c1` [Example 30, 4-(Thiophen-3-yloxy)quinazoline], the inhibition at 30 µM against PI3K gamma came to 55%; on PI3K alpha, 87%; at human recombinant MK2, 34%. The inhibition at 10 µM on human recombinant IRAK4 is 39%; at recombinant human B-Raf, 14%.

`c1ccc2c(Oc3cncnc3)ncnc2c1` [Example 31, 4-(Pyrimidin-5-yloxy)quinazoline]: the inhibition at 30 µM against PI3K gamma is 53%; against PI3K alpha, 33%. In addition, at 10 µM the inhibition at human TOR (FLAG-TOR) was 12%.

Consider `c1ccc2c(Oc3ccc4[nH]ccc4c3)ncnc2c1` [Example 29, 4-(1H-Indol-5-yloxy)quinazoline], for which the inhibition at 30 µM against PI3K gamma amounted to 21%; against PI3K alpha, 68%. In addition, on recombinant human B-Raf, the inhibition at 10 µM was found to be 21%.

On to `Cn1ccc(Oc2ccccc2)nc1=O` [Example 58, 1-Methyl-4-phenoxypyrimidin-2(1H)-one], for which the inhibition at 30 µM is under 10% on PI3K gamma and 32% against PI3K alpha. Moreover, the inhibition at 10 µM on recombinant human B-Raf amounted to 17%.

As usually defined, the inhibition is how much of the control response was suppressed.

(Values after patent publication US20090291971A1, “HETEROARYL ETHERS AND PROCESSES FOR THEIR PREPARATION” (Wyeth, priority 2007, published 2009).)
